According to US10487088B2, “Tricyclic compound serving as immunomodulator” (Chia Tai Tianqing Pharmaceutical Group Co., Ltd., priority 2016, dated 2019):
Entries after “also recorded” stand apart in the source; their conditions may differ.

Experiments:
[1] = biological target: T1, recombinant human IDO1 enzyme (Homo sapiens, UniProt P14902); experiment: In vitro hIDO1 enzyme activity test (NFK Green fluorescence); type: biochemical; settings: recombinant human IDO1, L-tryptophan substrate, pH 6.5
T1 construct: purchased NTRC NTRC-hlDO-10K
Method in brief: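 Recombinant human IDO1 diluted to 20 nM in pH 6.5 phosphate buffer with ascorbate, catalase and methylene blue, preincubated with compound 30 min at 23° C, then L-tryptophan added (400 μM solution) for 90 min. NFK Green developed 4 h at 37° C (Ex 400/Em 510 nm); IC50 from 10-point 3-fold series, no-enzyme wells as 100% inhibition.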

[2] = biological target: T2, IDO1 enzyme in Hela cells (Homo sapiens, UniProt P14902); experiment: hIDO1 cytological activity assay (kynurenine in Hela cells by LC-MS); type: cell-based; settings: Hela cells induced with 100 ng/mL recombinant human γ-interferon, 20 h, read-out: IC50 hIDO1 Cytoactive
T2 construct: recombinant human γ-interferon was added at a final concentration of 100 ng/mL to induce IDO1 expression; endogenous in cells; host or cells: Hela cells, induced with recombinant human γ-interferon
Method: The change of kynurenine in Hela cells was detected by the LC-MS method, and the IC50 value of the compound was used as an index, to evaluate the inhibitory effect of the compound on IDO1 enzyme.
A medium, trypsin and DPBS were pre-heated in a 37° C. water bath. The medium for cell culture was sucked out and washed with 10 mL of DPBS; then the pre-heated trypsin was added into the culture flask, and the flask was rotated to allow the trypsin to uniformly cover it, and then placed in a 37° C., 5% CO2 incubator and digested for 1-2 min; in each T150, cells were dispersed with 10-15 mL of medium, centrifuged at 800 rpm for 5 min, and then resuspended in 10 mL of medium; 1 mL of cell suspension was pipetted and the cells were counted with Vi-cell; Hela cells were diluted with medium to 5×10^5/mL, 80 μL of the solution was added to a 96-cell plate, and cultured at 37° C. for 5-6 h in a 5% CO2 incubator.
The compound was diluted to 1 mM in DMSO, and then diluted 3-fold in duplicate wells, with 9 gradients. 5 μL of the diluted solution of the compound in DMSO was added to the compound plate containing 95 μL of the medium, and mixed, followed by transferring 10 μL of the mixture to a cell plate.
10 μL of recombinant human γ-interferon was added at a final concentration of 100 ng/mL to induce IDO1 expression. The cells were incubated at 37° C. for 20 h in a 5% CO2 incubator. 4 μL of 5% (w/v) trichloroacetic acid was added thereto, mixed and incubated at 50° C. for 30 min. After centrifugation at 2400 rpm for 10 min, 40 μL of the supernatant was taken and placed in a 96-well V-bottom plate, and then a precipitant was added in the plate. After mixing, the mixture was centrifuged at 4000 rpm for 10 min. 100 μL of the supernatant was transferred to a new 96-well V-bottom plate. The content of kynurenine was determined by LC-MS.
The control wells having γ-interferon but no compound was set as 0% inhibition, and the control wells without Hela cell was set as 100% inhibition, and the IC50 value of the compound was calculated by analyzing the data with XLFit 5.

IDO1 = IDO1 (Mus musculus, UniProt P28776); experiment: In vivo pharmacodynamics of IDO1: Kyn level in lung and plasma of LPS-induced C57BL/6 mice
Sequence of IDO1 (P28776 whole entry): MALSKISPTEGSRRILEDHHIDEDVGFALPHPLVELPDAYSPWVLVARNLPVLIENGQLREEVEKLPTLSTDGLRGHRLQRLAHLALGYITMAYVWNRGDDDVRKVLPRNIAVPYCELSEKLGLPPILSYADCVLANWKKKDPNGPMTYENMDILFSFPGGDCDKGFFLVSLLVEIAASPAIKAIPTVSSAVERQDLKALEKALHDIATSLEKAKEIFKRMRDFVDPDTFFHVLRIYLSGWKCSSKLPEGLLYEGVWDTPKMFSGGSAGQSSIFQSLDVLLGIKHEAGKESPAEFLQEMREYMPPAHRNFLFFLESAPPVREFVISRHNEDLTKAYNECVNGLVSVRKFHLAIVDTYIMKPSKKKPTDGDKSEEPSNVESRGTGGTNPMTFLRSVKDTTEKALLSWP
Method: Prior to the experiment, 60 mg/kg sodium pentobarbital was injected into the abdominal cavity of the animals for anesthetizing. […] LPS was dissolved in PBS, and the dose is 25 μg/20 μL per animal. As a control, another 6 mice were received the same volume of PBS through the nasal cavity. Subsequently, the animals were housed as usual, and their plasma were collected at 25 h, 26 h, and 30 h after LPS/PBS induction, and the lung samples were collected at 26 h and 30 h (3 animals per a time point) and determined the kynurenine (Kyn) level.
Group 1, 40% polyethylene glycol 400 (PEG400) aqueous solution orally as a solvent control;
Group 2, 50 mg/kg NLG919 orally, formulated in 40% PEG400 aqueous solution;
Plasma were collected at 1 h, 2 h, 4 h and 6 h after the end of the last administration, and lung samples were collected at 2 h and 6 h (3 to 5 animals per a time point) and determined the Kyn level by the LC/MS method.

T2 sequence (P14902 whole entry): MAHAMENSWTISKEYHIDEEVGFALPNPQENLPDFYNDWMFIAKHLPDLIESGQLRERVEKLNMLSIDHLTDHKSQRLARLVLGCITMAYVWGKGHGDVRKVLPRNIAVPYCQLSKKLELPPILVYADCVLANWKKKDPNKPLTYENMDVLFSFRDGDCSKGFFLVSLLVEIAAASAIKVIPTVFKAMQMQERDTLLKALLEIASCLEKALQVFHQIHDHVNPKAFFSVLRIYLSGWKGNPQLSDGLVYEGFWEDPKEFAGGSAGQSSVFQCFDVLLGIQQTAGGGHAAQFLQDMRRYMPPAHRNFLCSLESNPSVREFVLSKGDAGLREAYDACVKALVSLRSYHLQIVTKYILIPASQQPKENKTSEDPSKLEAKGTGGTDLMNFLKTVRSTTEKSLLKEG
T1 sequence (P14902 whole entry): as above

IC50 [1] [nM]	IC50 [2] [nM]	SMILES	in vivo activity of IDO1 / reduction of the Kyn level in lung and plasma (IDO1; 50 mg/kg orally at 0, 12 h and 24 h after induction, plasma 1-6 h, lung 2 h and 6 h after last administration)	degree of Kyn level reduction in lung and plasma compared to NLG919 (IDO1; 50 mg/kg orally, comparison with NLG919 at same dose, 50 mg/kg)
7.22	5.08	OC(CC1c2sccc2-c2cncn21)C1CCCCC1 (single isomer, unassigned) [Example 7, cyclohexyl-2-(8H-thieno[3′,2′:3,4]pyrrolo[1,2-c]imidazol-8-yl)ethanol]	effectively inhibited in vivo activity of IDO1 and caused reduction of the Kyn level in lung and plasma	more significant than that of NLG919; also recorded: significantly reduced the Kyn level in lung and plasma
55	17.5	c1cc2c(s1)C(CCC1CCCCC1)n1cncc1-2 (single isomer, unassigned) [Example 9, 8-(2-cyclohexyl)-8H-thieno[3,4]pyrrolo[1,5-a]imidazole]		
> 10000	> 5000	c1cc2c(s1)C(CCC1CCCCC1)n1cncc1-2 (single isomer, unassigned) [Example 10, 8-(2-cyclohexyl)-8H-thieno[3,4]pyrrolo[1,5-a]imidazole]		
65.9	220	c1cc2c(s1)C(C1CCCCC1)n1cncc1-2 (single isomer, unassigned) [Example 14, 8-cyclohexyl-8H-thieno[3,4]pyrrolo[1,5-a]imidazole]		
71	911	c1cc2c(s1)C(CC1CCCCC1)n1cncc1-2 (single isomer, unassigned) [Example 16, 8-(cyclohexylmethyl)-8H-thieno[3,4]pyrrolo[1,5-a]imidazole]		
23.1	212	FC1(F)CCC(CCC2c3sccc3-c3cncn32)CC1 (single isomer, unassigned) [Example 22, 8-(2-(4,4-difluorocyclohexyl)ethyl)-8H-thieno[3′,2′:3,4]pyrrolo[1,2-c]imidazole]		
> 10000	> 5000	O[C@@H](C[C@@H]1c2sccc2-c2cncn21)C1CCOCC1 (single isomer, unassigned) [Example 28]		
51.6	117	O[C@@H](C[C@H]1c2sccc2-c2cncn21)C1CCOCC1 (single isomer, unassigned) [Example 29]		
48	74.9	FC1(F)CCC([C@H]2c3sccc3-c3cncn32)CC1 (single isomer, unassigned) [Example 41]		
253	779	OCC1(C2c3sccc3-c3cncn32)CCCCC1 (single isomer, unassigned) [Example 42, [1-(8H-thieno[3,4]pyrrolo[1,5-a]imidazol-8-yl)cyclohexyl]methanol]		
161	377	OC1CCCCC1C1c2sccc2-c2cncn21 (single isomer, unassigned) [Example 53, 2-(8H-thieno[3,4]pyrrolo[1,5-a]imidazol-8-yl)cyclohexanol]		
199	446	FC1(F)[C@@H]2C[C@@H](C3c4sccc4-c4cncn43)C[C@@H]21 (single isomer, unassigned) [Example 62, 8-[6,6-difluoro-3-bicyclo[3.1.0]cyclohexyl]-8H-thieno[3,4]pyrrolo[1,5-a]imidazole (trans)]		
8800	> 5000	FC1(F)[C@@H]2C[C@@H](C3c4sccc4-c4cncn43)C[C@@H]21 (single isomer, unassigned) [Example 63, 8-[6,6-difluoro-3-bicyclo[3.1.0]cyclohexyl]-8H-thieno[3,4]pyrrolo[1,5-a]imidazole (trans)]		
99.9	223	c1cc2c(s1)C(C1CCCCCC1)n1cncc1-2 (single isomer, unassigned) [Example 72, 8-cycloheptyl-8H-thieno[3,4]pyrrolo[1,5-a]imidazole]		
> 10000	> 5000	c1cc2c(s1)C(C1CCCCCC1)n1cncc1-2 (single isomer, unassigned) [Example 73, 8-cycloheptyl-8H-thieno[3,4]pyrrolo[1,5-a]imidazole]		
37	125	FC1(F)C2CC(C3c4sccc4-c4cncn43)CC21 (single isomer, unassigned) [Example 77, 8-(6,6-difluoro-3-bicyclo[3.1.0]cyclohexyl)-8H-thieno[3,4]pyrrolo[1,5-a]imidazole (cis)]		
27.2	159	OC1CCCCC1C1c2sccc2-c2cncn21 (single isomer, unassigned) [Example 85]		
215	891	OC1CCC(C2c3sccc3-c3cncn32)CC1 (single isomer, unassigned) [Example 117, 4-(8H-thieno[3,4]pyrrolo[1,5-a]imidazol-8-yl)-cyclohexanol]		
390	1980	CC(C)(C(O)C1CCCCC1)C1c2sccc2-c2cncn21 (single isomer, unassigned) [Example 119, 1-cyclohexyl-2-methyl-2-(8H-thieno[3,4]pyrrolo[1,5-a]imidazol-8-yl)-propan-1-ol]		
83.6	613	OC(CC1c2ccsc2-c2cncn21)C1CCCCC1 (stereo not shown) [Example 4, 1-cyclohexyl-2-(4H-thieno[3,4]pyrrolo[1,5-a]imidazol-4-yl)ethanol]		
46	90.5	FC1(CCC2c3sccc3-c3cncn32)CCCCC1 (stereo not shown) [Example 39, 8-(2-(1-fluorocyclohexyl)ethyl)-8H-thieno[3′,2′:3,4]pyrrolo[1,2-c]imidazole]		
11.4	28	O[C@@H](C[C@H]1c2sccc2-c2cncn21)C1CCC(F)(F)CC1 [Example 46, (1S)-1-(4,4-difluorocyclohexyl)-2-((S)-8H-thieno[3,4]pyrrolo[1,5-a]imidazol-8-yl)ethanol]		
